Measured values from publication PMC10141604, “Small-Molecule Inhibition of Androgen Receptor Dimerization as a Strategy against Prostate Cancer” (ACS Central Science, 2023).

Experiments:
NIH-3T3 = assay: MTT cell viability assay, NIH-3T3; type: cell-based, murine; conditions: 72 h
Procedure: 3-(4,5-dimethythiazol-2-yl)-2,5-diphenyl-2-H-tetrazolium bromide (MTT) colorimetric assay was employed to investigate cell viability. Cells were seeded into 96-well plates with 2-5× 10^3 cells per well (5× 10^3 cells/well for LNCaP, 22RV1, NIH-3T3, GES-1, Chang, […]
NCI-H1299, U2OS, U87) for 1 day incubation at 37 °C. Then, the cells were treated with various concentrations of compounds (22.86 nM - 50 μM) and incubated for 72 h. Then, 10 μl MTT (5 mg/ml) was added into each well and incubated for 4 h. Afterwards, 100 μl of triplex 10% SDS-0.1% HCl-phosophate-buffered saline (PBS) solutions was added into each well and incubated for overnight. The absorbance at 570 nm was measured (Eon, Bioteck, Winooski, VT). […]

[1] = system: PSA, CDC20, CENPF, MKI67 mRNA in LNCaP cells; assay: Quantitative PCR in LNCaP cells; type: cell-based; conditions: for mRNA expression of PSA: LNCaP, 0.1, 1 μM, 5 nM DHT; for mRNA expressions of CDC20, CENPF and MKI67: LNCaP, compared with DHT
Procedure: Quantitative PCR (qPCR) for PSA, CDC20, CENPF, MKI67
LNCaP cells were cultured in medium containing 5% CSS in six -well plates and treated […]
where 5 nM DHT and DMSO were separately used in parallel as controls. After 48 h incubation, EZ-10 DNAaway RNA Mini -Preps Kit (Sangon Biotech) and Hifair® Ⅲ 1st Strand cDNA Synthesis SuperMix for qPCR (YEASEN) were employed for mRNA extraction and cDNA preparation, respectively. Then, the PCR SYBR Green Master Mix (YEASEN) was employed to amplify cDNA using the prime pairs in Table S5 . […]

LNCaP cell line = assay: Cell cycle and apoptosis of LNCaP cells (flow cytometry); type: cell-based
Procedure: calculating volume (V= 0.5 × L × W2). Finally, the mice were sacrificed and the tumors were harvested for hematoxylin and eosin (H&E) staining.
Luciferase Reporter Assays for PR, GR, and MR
PC3, HeLa, and HEK293T cells were cultured using 5% CSS RPMI-1640, 5% CSS RPMI-1640 and 10% FBS DMEM media in 96-well plates for 24 h, respectively. For PR induction, PC3 (1 × 10^4 cells/well) were transfected with 50 ng pcDNA3-PRB (#89130, Addgene), 24 ng pGL4.36[luc2P MMTV Hygro] (Promega) and 5 ng Renilla using HG-TransGeneTM transfection reagent (#TG-10012, Genomeditech) for 4 h. […] The luciferase activities were assessed using the Dual-Glo Luciferase system (#E1910, Promega). […]
Cell cycle were determined after 48 h incubation by Cell Cycle Staining Kit (#CCS012, MULTI SCIENCES) using […]
Cytomic FC 500MCL flow cytometer (Beckman Coulter, Inc). Cell apoptosis were determined after 24 h incubation by Annexin V-FITC/PI apoptosis kit (#AP101, MULTI SCIENCES) using BD FACS S ORP ARIA II flow cytometer (BD Biosciences).
Graphpad Prism (v.8.4) program was adopted for statistical analysis and data were presented as the mean ± standard error of mean (SEM). The value of p was determined on the basis of at least three independent assays using Student’s t-test, one-way ANOVA or two-way ANOVA analysis.

Row | SMILES | cytotoxicity against NIH-3T3 (NIH-3T3) | mRNA expression of PSA [1] | mRNA expressions of CDC20, CENPF and MKI67 [1] | impact on cell cycle and apoptosis (LNCaP cell line)
1 | CNC(=O)c1ccc(N2C(=S)N(c3ccc(C#N)c(C(F)(F)F)c3)C(=O)C2(C)C)cc1F [Enz, enzalutamide, reference compound] | negligible cytotoxicity | inhibited | significantly reduces | do not show an obvious impact
2 | CC(=O)Cc1nsc(NC(=O)c2cc(-c3cccc(C(F)(F)F)c3)oc2C)n1 [Compound M17-B15] | negligible cytotoxicity | inhibited | significantly reduces | do not show an obvious impact
